# Experimental data taken from patent EP4755396A1, “TREATMENT OF P53 GENE MUTATION OR DEFECT NEGATIVE CANCER AND TUMOR PATIENTS” (Ascentawits Pharmaceuticals, Ltd., priority 2023, dated 2025).
# Assays:
# [1] = test system: Total P53, MDM2, P21, AKR1C3 proteins in H460 P53 KO cells; test: WB detection, presence and absence of Nutlin-3; type: cell-based, human; settings: H460 P53 KO cells (#1, #7, #8, #12), 5 µM Nutlin-3, 24h, compared to H460 wild-type DMSO group (Figures 29, 30)
# Experimental: • 1) H460 and H460 P53 KO cell suspensions were added to a 24-well plate, with a cell density of 100000 /well and 995 µL of medium per well. • 2) The cells were cultured overnight in an incubator at 37°C, 5% CO2. • 3) Compound Treatment
# After 24 hours of cell plating, according to the protocol, each cell line experiment was grouped as: H460 WT untreated group, H460 P53 KO # 1 untreated group, H460 P53 KO # 7 untreated group, H460 P53 KO # 8 untreated group, H460 P53 KO # 12 untreated group, H460 WT 0.1% DMSO treated group, H460 WT 5 µM Nutlin-3 treated group, H460 P53 KO # 1 5 µM Nutlin-3 treated group, H460 P53 KO # 7 5 µM Nutlin-3 treated group, H460 P53 KO # 8 5 µM Nutlin-3 treated group, H460 P53 KO # 12 5 µM Nutlin-3 treated group. […]
# • 1) The cell plates were taken back, the medium supernatant was discarded, and the plates were gently rinsed with PBS. […] The cells were scraped off with a cell scraper, lysed on ice for 30 min, and centrifuged at 14000 rpm and 4°C for 10 min. • 2) Protein quantification was performed using the BCA method. […] Solutions A and B of the ECL luminescence solution (SuperSignal West Femto Maximum Sensitivity) were mixed and added to the membrane dried away from water. […]
# HPAF-II cells = test: Cell cycle G2/M arrest, PI staining flow cytometry; type: cell-based; settings: HPAF-II cells with p53 pathogenic mutation, 0.1 nM AST-3424, 5 µM Nutlin-3, 24 hours (Figure 5)
# Experimental: Overview of the experimental process: • 1) H460/HPAF-II cell suspensions were added to a 24-well plate, with a cell density of 100000 /well and 995 µL of medium per well. • 2) The cells were cultured overnight in an incubator at 37°C, 5% CO2. • 3) Compound Treatment
# After 24 hours of cell plating, according to the protocol, each cell line experiment was grouped as: Monotherapy: After 24 hours of cell plating, each well was supplied with 5µL of test compounds at different concentrations: 1% DMSO, 5 µM Nutlin-3 and 0.1 nM AST-3424, shaken gently to ensure even mixing, and then placed at 37°C, 5% CO2 in an incubator.
# To cells AST-3424 pre-treatment for 2 hours followed by co-treatment with Nutlin-3 for 24 hours.
# To cells Nutlin-3 pre-treatment for 2 hours followed by co-treatment with AST -3424 for 24 hours.
# Co-treatment with AST-3424 and Nutlin-3 for 24 hours.
# 4) The cells were digested, centrifuged at 1000 g at 4°C, washed once with pre-cooled PBS, centrifuged at 1000 g at 4°C, and fixed with 1 mL of pre-cooled 70% ethanol at -20°C overnight.
# 5) The cells were centrifuged at 3000g at 4°C, washed once with pre-cooled PBS (phosphate buffer), centrifuged at 3000g at 4°C. Prepare PI staining solution. […] Flow cytometric detection was performed on the same day, and the proportion of cells in different cell cycle phases was analyzed using FlowJo. […]
# [2] = test system: Ser15-p53, Ser20-p53, Total p53, MDM2 and p21 proteins in H460 cells; test: WB detection of p53 protein pathway; type: cell-based; settings: 0.1-1 nM AST-3424, 5 µM Nutlin-3, 24 hours, three experiments (Figures 11-13)
# Experimental: Overview of the experimental process: • 1) H460 cell suspension was added to a 24-well plate, with a cell density of 80000 /well and 995 µL of medium per well. • 2) The cells were cultured overnight in an incubator at 37°C, 5% CO2. • 3) Compound Treatment
# After 24 hours of cell plating, according to the protocol, each cell line experiment was grouped as: Monotherapy: After 24 hours of cell plating, each well was supplied with 5µL of test compounds at different concentrations: 0.5% DMSO, 0.1nM AST-3424 and 5 µM Nutlin-3, shaken gently to ensure even mixing, and then placed at 37°C, 5% CO2 in an incubator.
# Combination therapy: After 24 hours of cell plating, each well was supplied with 5µL of test compounds at different concentrations. The cells were pre-treated with 5µM Nutlin-3 for 2 hours and then were added with 0.1nM AST-3424, shaken gently to ensure even mixing, and then placed at 37°C, 5% CO2 in an incubator.
# 4) Cell protein lysates were collected for WB analysis.
# Combination therapy group: • Adding 0.1 nM AST-3424 for pre-treatment for 2 hours, and then adding 5 µM Nutlin-3 for co-treatment for 22 hours; • Adding 0.3 nM AST-3424 for pre-treatment for 2 hours, and then adding 5 µM Nutlin-3 for co-treatment for 22 hours; • Adding 1 nM AST-3424 for pre-treatment for 2 hours, and then adding 5 µM Nutlin-3 for co-treatment for 22 hours.
# [3] = test system: γH2AX protein in H460 cells; test: WB detection of DNA damage marker; type: cell-based; settings: 0.1-1 nM AST-3424, 5 µM Nutlin-3, 24 hours (Figures 20-22)
# Source text: In the first, the second and the third experiment of the effect of AST-3424 in combination with Nutlin-3 on Ser15-p53, Ser20-p53, Total p53, MDM2 and p21 proteins in H460 cells in example 5, the applicant also performed WB detection of γH2AX protein, with the results shown in Figures 20, 21 and 22.
# A549 cells = test: Cell cycle G2/M arrest, PI staining flow cytometry; type: cell-based; settings: second experiment, 0.3-9 nM AST-3424, 5 µM Nutlin-3, AST-3424 pre-treatment 2 hours (Figure 6)
# Experimental: A second experiment was further conducted, in order to further study the effects of different concentrations of AST-3424 alone, Nutlin-3 alone and the two in combination and different administration sequences in the combination therapy on the cell cycle of H460/A549 cells (p53 wild-type, protein normal expression).
# The remaining operations were similar to the above experiment, and the compound treatment conditions were as follows:
# For A549 cell line, 1% DMSO, adding 5 µM Nutlin-3 for treatment for 22 hours, adding 0.3 nM AST-3424 for treatment for 24 hours, adding 1 nM AST-3424 for treatment for 24 hours, adding 9 nM AST-3424 for treatment for 24 hours, and adding 9 nM AST-3424 for treatment for 24 hours.
# For A549 cell line, • Adding 0.3 nM AST-3424 for pre-treatment for 2 hours, and then adding 5 µM Nutlin-3 for co-treatment for 22 hours; • Adding 1 nM AST-3424 for pre-treatment for 2 hours, and then adding 5 µM Nutlin-3 for co-treatment for 22 hours; • Adding 3 nM AST-3424 for pre-treatment for 2 hours, and then adding 5 µM Nutlin-3 for co-treatment for 22 hours; • Adding 9 nM AST-3424 for pre-treatment for 2 hours, and then adding 5 µM Nutlin-3 for co-treatment for 22 hours.
# H460 cells = test: Cell proliferation experiment (3 days) with different administration sequences; type: cell-based; settings: after the addition of Nutlin-3, different administration sequences (Figure 2)
# Experimental: Further combination therapy experiments with different administration sequences of AST-3424 were carried out. Dosing regimens were set for the experiments.
# Monotherapy: Each well was added with AST-3424 alone, Nutlin-3 alone, 5 µL of each compound in different concentrations (400 times) and 5 µL of medium. The cells were treated (DMSO 0.25% and 0.50%).
# Combination therapy: Cells were treated with 5 µL each of AST-3424 and Nutlin-3 in different administration sequences: AST-3424 pre-treatment for 2 hours followed by co-treatment with Nutlin-3 for 6 hours; Nutlin-3 pre-treatment for 2 hours followed by co-treatment with AST-3424 for 6 hours; and co-treatment with AST-3424 and Nutlin-3 for 6 hours.
SMILES,"expressions of MDM2, P53, P21 and AKR1C3 proteins (WB) [1]","cell cycle (G0/G1, S, G2/M phases) (HPAF-II cells)","phosphorylation of p53 (Ser15-p53 and Ser20-p53), protein expression of total-p53, MDM2 and p21 (WB) [2]","γH2AX protein amount, a biomarker of DNA double-strand damage (WB) [3]",G2/M cell cycle arrest (A549 cells),proliferation inhibition rate of AST-3424 (H460 cells)
COc1ccc(C2=NC(c3ccc(Cl)cc3)C(c3ccc(Cl)cc3)N2C(=O)N2CCNC(=O)C2)c(OC(C)C)c1 (racemic) [Nutlin-3],not upregulated,no effect,upregulated the expression levels of p53 and its downstream proteins p21 and MDM2,–,–,–
C[C@H](OP(=O)(N1CC1)N1CC1)c1ccc([N+](=O)[O-])c(Oc2cccc(C(=O)N(C)C)c2)c1 [AST-3424],–,–,–,upregulate the amount of γH2AX protein,concentration-dependent G2/M cell cycle arrest,significantly increased
